target: T1, human SLC6A19 and TMEM27 (Homo sapiens, UniProt Q695T7); experiment: Radiolabelled (3H) leucine uptake in CHO cells with doxycycline-inducible expression of human SLC6A19 and TMEM27 (Example B-1); type: cell-based; conditions: CHO cells with doxycycline-inducible expression of human SLC6A19 and TMEM27, read-out: SLC6A19_Radioligand Uptake Assay IC50
T1 construct: expressed in transfected cells
T1 sequence (Q695T7 1-634): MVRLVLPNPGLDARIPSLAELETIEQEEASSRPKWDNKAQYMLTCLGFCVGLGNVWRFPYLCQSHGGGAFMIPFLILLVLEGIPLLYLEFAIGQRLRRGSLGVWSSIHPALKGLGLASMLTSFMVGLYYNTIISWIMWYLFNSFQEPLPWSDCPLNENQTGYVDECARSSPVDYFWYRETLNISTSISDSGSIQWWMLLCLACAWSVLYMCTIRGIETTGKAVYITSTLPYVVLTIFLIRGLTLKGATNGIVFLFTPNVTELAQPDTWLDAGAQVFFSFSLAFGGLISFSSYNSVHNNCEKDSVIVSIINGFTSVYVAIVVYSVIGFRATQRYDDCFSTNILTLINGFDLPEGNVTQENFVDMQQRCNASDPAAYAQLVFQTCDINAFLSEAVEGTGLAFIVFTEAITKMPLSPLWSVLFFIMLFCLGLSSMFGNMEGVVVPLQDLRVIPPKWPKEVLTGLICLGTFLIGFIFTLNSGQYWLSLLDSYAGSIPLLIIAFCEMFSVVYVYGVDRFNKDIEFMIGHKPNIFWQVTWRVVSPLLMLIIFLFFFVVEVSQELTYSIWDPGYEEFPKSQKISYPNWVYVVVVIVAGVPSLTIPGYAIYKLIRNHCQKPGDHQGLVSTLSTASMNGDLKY
T1 sequence (Q9HBJ8 15-222 partner): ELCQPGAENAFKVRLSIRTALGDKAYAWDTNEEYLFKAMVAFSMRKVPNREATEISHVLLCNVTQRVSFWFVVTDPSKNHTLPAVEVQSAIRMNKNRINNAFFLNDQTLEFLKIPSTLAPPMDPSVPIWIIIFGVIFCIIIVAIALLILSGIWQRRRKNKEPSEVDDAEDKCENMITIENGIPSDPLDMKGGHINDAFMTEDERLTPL
Procedure, shortened: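 CHO cells were induced with doxycycline for 18 h at 37 °C, washed in HBSS, then exposed to compounds for 1 h: 8-point, 3-fold dilutions in duplicate, 0.5% DMSO final. Uptake measured by scintillation counting after 2 h shaking. Activity normalized with positive control as 0% and DMSO as 100%.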

IC50 [nM] | SMILES
95.1 | Cc1cc(COc2cc3[nH]c(CNC(=O)c4ccon4)cc3cc2Cl)on1 [Compound 450, N-((5-chloro-6-((3-methylisoxazol-5-yl)methoxy)-1H-indol-2-yl)methyl)isoxazole-3-carboxamide]
220 | Cc1cc(CCc2cc3[nH]c(CNC(=O)C4(C)CC4)cc3cc2F)no1 [Compound 593, N-((5-fluoro-6-(2-(5-methylisoxazol-3-yl)ethyl)-1H-indol-2-yl)methyl)-1-methylcyclopropane-1-carboxamide]
196 | O=C(NCc1cc2cc(Cl)c(OCc3cscn3)cc2[nH]1)C1(C(F)F)CC1 [Compound 559, N-((5-chloro-6-(thiazol-4-ylmethoxy)-1H-indol-2-yl)methyl)-1-(difluoromethyl)cyclopropane-1-carboxamide]
> 6440 | CC1(C(=O)NCc2cc3cc(Cl)c(OCc4cc5ccccc5[nH]4)cc3[nH]2)CC1 [Compound 607, N-((6-((1H-indol-2-yl)methoxy)-5-chloro-1H-indol-2-yl)methyl)-1-methylcyclopropane-1-carboxamide]
387 | O=C(NCc1cc2cc(C3CC3)c(OCc3ccon3)cc2[nH]1)N1CCC1 [Compound 653, N-((5-cyclopropyl-6-(isoxazol-3-ylmethoxy)-1H-indol-2-yl)methyl)azetidine-1-carboxamide]
114 | CC1(C(=O)NCc2cc3cc(Cl)c(OCCc4ccon4)cc3[nH]2)CC1 [Compound 103, N-((5-chloro-6-(2-(isoxazol-3-yl)ethoxy)-1H-indol-2-yl)methyl)-1-methylcyclopropane-1-carboxamide]
553 | O=C(NCc1[nH]c2cc(OCc3cscn3)c(Cl)cc2c1Cl)N1CCC1 [Compound 474, N-((3,5-dichloro-6-(thiazol-4-ylmethoxy)-1H-indol-2-yl)methyl)azetidine-1-carboxamide]
327 | CC1(C(=O)NCc2cc3cc(OC(F)(F)F)c(OCc4cocn4)cc3[nH]2)CC1 [Compound 439, 1-methyl-N-((6-(oxazol-4-ylmethoxy)-5-(trifluoromethoxy)-1H-indol-2-yl)methyl)cyclopropane-1-carboxamide]
143 | CC1(C(=O)NCc2cc3cc(OC(F)F)c(OCc4ccon4)cc3[nH]2)CC1 [Compound 605, N-((5-(difluoromethoxy)-6-(isoxazol-3-ylmethoxy)-1H-indol-2-yl)methyl)-1-methylcyclopropane-1-carboxamide]
2990 | Cc1cc(COc2cc3[nH]c(CNC(=O)[C@@H]4CC(F)(F)CN4)cc3cc2Cl)on1 [Compound 666, (S)-N-((5-chloro-6-((3-methylisoxazol-5-yl)methoxy)-1H-indol-2-yl)methyl)-4,4-difluoropyrrolidine-2-carboxamide]
341 | CC1(C(=O)NCc2cc3ccc(OCc4cscn4)c(F)c3[nH]2)CC1 [Compound 19, N-((7-fluoro-6-(thiazol-4-ylmethoxy)-1H-indol-2-yl)methyl)-1-methylcyclopropane-1-carboxamide]
293 | CC1(C(=O)NCc2cc3cc(OC(F)(F)F)c(OCc4ccon4)cc3[nH]2)CC1 [Compound 508, N-((6-(isoxazol-3-ylmethoxy)-5-(trifluoromethoxy)-1H-indol-2-yl)methyl)-1-methylcyclopropane-1-carboxamide]
272 | O=C(NCc1cc2cc(Cl)c(OCc3ccon3)cc2[nH]1)N1CCC1 [Compound 79, N-((5-chloro-6-(isoxazol-3-ylmethoxy)-1H-indol-2-yl)methyl)azetidine-1-carboxamide]
152 | CC1(C(=O)NCc2cc3cc(F)c(COc4ccon4)cc3[nH]2)CC1 [Compound 612, N-((5-fluoro-6-((isoxazol-3-yloxy)methyl)-1H-indol-2-yl)methyl)-1-methylcyclopropane-1-carboxamide]
95.6 | Cc1cc(COc2cc3[nH]c(CNC(=O)C(C)(F)F)cc3cc2F)on1 [Compound 441, 2,2-difluoro-N-((5-fluoro-6-((3-methylisoxazol-5-yl)methoxy)-1H-indol-2-yl)methyl)propanamide]
> 5480 | O=C(NCc1cc2cc(Cl)c(OCc3cscn3)cc2[nH]1)N1CC(CO)C1 [Compound 368, N-((5-chloro-6-(thiazol-4-ylmethoxy)-1H-indol-2-yl)methyl)-3-(hydroxymethyl)azetidine-1-carboxamide]

IC50 [nM] | SMILES
123 | O=C(NCc1cc2cc(Cl)c(OCc3cscn3)cc2[nH]1)[C@@H]1C[C@@H]1F [Compound 542, (1S,2S)-N-((5-chloro-6-(thiazol-4-ylmethoxy)-1H-indol-2-yl)methyl)-2-fluorocyclopropane-1-carboxamide]
126 | CC1(C(=O)NCc2cc3cc(Cl)c(OCCOC4CC4)cc3[nH]2)CC1 [Compound 335, N-((5-chloro-6-(2-cyclopropoxyethoxy)-1H-indol-2-yl)methyl)-1-methylcyclopropane-1-carboxamide]
267 | Cc1cc(COc2cc3[nH]c(CNC(=O)N4CCCC4)cc3cc2F)no1 [Compound 117, N-((5-fluoro-6-((5-methylisoxazol-3-yl)methoxy)-1H-indol-2-yl)methyl)pyrrolidine-1-carboxamide]
> 9230 | CC1(C(=O)NCc2cc3cc(Cl)c(CCn4cnnn4)cc3[nH]2)CC1 [Compound 585, N-((6-(2-(1H-tetrazol-1-yl)ethyl)-5-chloro-1H-indol-2-yl)methyl)-1-methylcyclopropane-1-carboxamide]
359 | O=C(NCc1cc2cc(Cl)c(OCc3ccon3)cc2[nH]1)C1CCCC1 [Compound 492, N-((5-chloro-6-(isoxazol-3-ylmethoxy)-1H-indol-2-yl)methyl)cyclopentanecarboxamide]
567 | Cc1cc(COc2cc3[nH]c(CNC(=O)C4(C)COC4)cc3cc2Cl)on1 [Compound 273, N-((5-chloro-6-((3-methylisoxazol-5-yl)methoxy)-1H-indol-2-yl)methyl)-3-methyloxetane-3-carboxamide]
293 | Cc1c(CNC(=O)N2CCC2)[nH]c2cc(OCc3cscn3)c(Cl)cc12 [Compound 473, N-((5-chloro-3-methyl-6-(thiazol-4-ylmethoxy)-1H-indol-2-yl)methyl)azetidine-1-carboxamide]
1440 | Cc1cc(COc2cc3[nH]c(CNC(=O)[C@@H]4CCCN4C)cc3cc2Cl)on1 [Compound 577, (S)-N-((5-chloro-6-((3-methylisoxazol-5-yl)methoxy)-1H-indol-2-yl)methyl)-1-methylpyrrolidine-2-carboxamide]
86.1 | CC(F)C(=O)NCc1cc2cc(Cl)c(OCc3cscn3)cc2[nH]1 (racemic) [Compound 511, (R)-N-((5-chloro-6-(thiazol-4-ylmethoxy)-1H-indol-2-yl)methyl)-2-fluoropropanamide and (S)-N-((5-chloro-6-(thiazol-4-ylmethoxy)-1H-indol-2-yl)methyl)-2-fluoropropanamide]
385 | CC1(C(=O)NCc2cc3cc(OC(F)(F)F)c(CCc4ccon4)cc3[nH]2)CC1 [Compound 510, N-((6-(2-(isoxazol-3-yl)ethyl)-5-(trifluoromethoxy)-1H-indol-2-yl)methyl)-1-methylcyclopropane-1-carboxamide]
539 | CC1(C(=O)NCc2cc3cc(C(F)F)c(OCc4ccon4)cc3[nH]2)CC1 [Compound 646, N-((5-(difluoromethyl)-6-(isoxazol-3-ylmethoxy)-1H-indol-2-yl)methyl)-1-methylcyclopropane-1-carboxamide]
429 | Cc1cc(COc2cc3[nH]c(CNC(=O)C4(C)CC4)cc3cc2Cl)ns1 [Compound 399, N-((5-chloro-6-((5-methylisothiazol-3-yl)methoxy)-1H-indol-2-yl)methyl)-1-methylcyclopropane-1-carboxamide]
187 | Cc1cc(COc2cc3[nH]c(CNC(=O)CC4CC4)cc3cc2Cl)on1 [Compound 449, N-((5-chloro-6-((3-methylisoxazol-5-yl)methoxy)-1H-indol-2-yl)methyl)-2-cyclopropylacetamide]
392 | Cc1cc(CNc2cc3[nH]c(CNC(=O)N4CCCC4)cc3cc2Cl)no1 [Compound 469, N-((5-chloro-6-(((5-methylisoxazol-3-yl)methyl)amino)-1H-indol-2-yl)methyl)pyrrolidine-1-carboxamide]
176 | CC1(C(=O)NCc2cc3cc(Cl)c(CCn4nccn4)cc3[nH]2)CC1 [Compound 586, N-((6-(2-(2H-1,2,3-triazol-2-yl)ethyl)-5-chloro-1H-indol-2-yl)methyl)-1-methylcyclopropane-1-carboxamide]
